“And” between values parts separate entries of the source, which are not always exact repeats. Equal entries are not always repeated.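 The compound was tested at five concentrations on cells cultured in 96-well plates, with a 48-hour exposure period. GI50 marks 50% less growth. At the TGI there is no net growth.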
How the values were obtained:
Assay in all cases: NCI anticancer screen, dose series, 48 h
BT-549 breast = system: BT-549 breast
HS 578T breast = system: HS 578T breast
PC-3 prostate = system: PC-3 prostate
KM20L2 colon = system: KM20L2 colon
LXFL 529 NSCLC = system: LXFL 529 NSCLC
DMS 273 small cell lung = system: DMS 273 small cell lung
M19-MEL melanoma = system: M19-MEL melanoma
DLD-1 colon = system: DLD-1 colon
T-47D breast = system: T-47D breast

SMILES | GI50 (BT-549 breast) | TGI (BT-549 breast) | GI50 (HS 578T breast) | TGI (HS 578T breast) | GI50 (PC-3 prostate) | TGI (PC-3 prostate) | TGI (KM20L2 colon) | TGI (LXFL 529 NSCLC) | TGI (DMS 273 small cell lung) | TGI (M19-MEL melanoma) | TGI (DLD-1 colon) | GI50 (T-47D breast) | TGI (T-47D breast) | GI50 (DMS 273 small cell lung) | GI50 (M19-MEL melanoma) | GI50 (DLD-1 colon)
N#CC(C#N)=C1CCOc2ccc(F)cc21 | 53.4 µM | > 100 µM | 0.289 µM | 41.6 µM | 13.9 µM | 26.8 µM |  |  |  |  |  |  |  |  |  | 
CN(C)CCC(CCN(C)C)=NO |  |  |  |  |  |  | > 100 µM | > 100 µM | > 100 µM | > 100 µM | > 100 µM |  |  |  |  | 
C=CC(=O)N1C[C@@H]2CCOc3c(Cl)c(-c4c(O)cccc4F)c(F)c4ncnc(c34)N2C[C@H]1C | 2.48 µM | 12.9 µM | 16.5 µM | 89.2 µM | 17.9 µM | > 100 µM |  |  |  |  |  | 14.9 µM | 87.4 µM |  |  | 
CC1=C(C)C(=O)O[C@@H]([C@](C)(O)[C@]2(O)CC[C@@]3(O)[C@@H]4C[C@H](O)[C@]5(O)[C@@H](O)C=CC(=O)[C@]5(C)[C@H]4CC[C@]23C)C1 |  | > 100 µM |  | > 100 µM |  | > 100 µM |  |  |  |  |  |  | > 100 µM |  |  | 
C#Cc1cccc(Nc2ncnc3ccc(OCCCCNCCS(C)(=O)=O)cc23)c1 | 8.33 µM | > 25 µM | 8.66 µM | > 23.2 µM | 9.55 µM | > 25 µM |  |  |  |  |  | 7.2 µM | > 25 µM |  |  | 
COc1cc(N2C(=O)[C@H](c3ccccc3)C2c2ccc(SC)cc2)cc(OC)c1OC (some centres undefined) | 0.0299 µM | 0.0937 µM | 0.0653 µM | > 100 µM | 0.0428 µM | > 100 µM |  |  |  |  |  | > 100 µM | > 100 µM |  |  | 
O=C(NCCCl)Nc1cccnc1 |  |  |  |  |  | > 100 µM |  |  |  |  |  |  | 59.5 µM |  |  | 
CC(C)(C)c1cc(NC(=O)Nc2ccc(-c3cn4c(n3)sc3cc(OCCN5CCOCC5)ccc34)cc2)no1 | 3.52 µM and 0.819 µM and 7.47 µM | 20.3 µM and 5.16 µM and > 10 µM | 1.35 µM and 0.328 µM and 1.75 µM | 25.3 µM and 2.92 µM and > 10 µM | 4.63 µM and 0.771 µM and 5.06 µM | 19.1 µM and 14.2 µM and > 10 µM |  |  |  |  |  | 0.0864 µM and 0.107 µM and 0.223 µM |  |  |  | 
CCOC(=O)C1=C(C)NC(=O)NC1CN1C(=O)c2ccccc2C1=O (centres undefined) | > 100 µM | > 100 µM | > 100 µM | > 100 µM | > 100 µM | > 100 µM |  |  |  |  |  | > 100 µM | > 100 µM |  |  | 
CSc1nc2nn(Cc3ccccc3)cc2c(=O)[nH]1 |  |  |  |  |  |  | > 100 µM | > 100 µM | > 100 µM | > 100 µM | > 100 µM |  |  |  |  | 
CC(C)(C)c1cc(/C=N/NC(=O)c2ccccc2NC(=O)c2cccs2)c(O)c(C(C)(C)C)c1 | 4.65 µM | > 100 µM | 5.13 µM | 42.6 µM | 2.8 µM | > 100 µM |  |  |  |  |  | 1.85 µM | 29.4 µM |  |  | 
COc1ccc(CCN(CC(=O)N(CC(N)=O)C2CCC[C@@H]2OCc2ccccc2)C(=O)CN(C(=O)CN(CCc2ccc(Cl)cc2)C(=O)CN(C(=O)CN(C)Cc2ccccc2F)[C@H](C)C2CCCCC2)[C@H](C)C2CCCCC2)cc1OC (some centres undefined) | 1.61 µM | 15.6 µM | 7.26 µM | > 50 µM | 1.37 µM | > 50 µM |  |  |  |  |  | 1.43 µM | > 50 µM |  |  | 
CC(C)(C)c1cc(CCCCCCCC2(CCCCCCCc3cc(C(C)(C)C)cc(C(C)(C)C)c3)OC(COCCOCCCCCC#N)C(COCCOCCCCCC#N)O2)cc(C(C)(C)C)c1 (centres undefined) |  |  |  |  |  |  | > 100 µM | > 100 µM | > 100 µM | > 100 µM | > 100 µM |  |  |  |  | 
COC(=O)c1ccc(/C=C(\c2ccc([N+](=O)[O-])o2)S(=O)(=O)c2ccc(NC(C)=O)cc2)o1 |  | 5.43 µM |  | 6.34 µM |  | 29.8 µM |  |  |  |  |  |  | > 100 µM |  |  | 
C=C1C(=O)O[C@H]2[C@H](OC(C)=O)[C@@H](C)CCCC3(C)OC3CCC3(CO3)[C@H](O)C[C@@H]12 (some centres undefined) | 11.4 µM | 32 µM | 11.8 µM | 43.4 µM | 4.4 µM | 18 µM |  |  |  |  |  | 13.7 µM | 62.5 µM |  |  | 
CC1(C)N=C(N)N=C(N)N1c1ccc(OCCCNC(=O)Nc2cccc(S(=O)(=O)F)c2)c(Cl)c1 |  |  | 5.08 µM | > 100 µM | 1.23 µM | > 100 µM |  |  |  |  |  | 35.1 µM | > 100 µM |  |  | 
Cc1cnc2oc3ccc(O)cc3c2c1-c1ccccc1 | 19.8 µM | 98.8 µM | 19.6 µM | 74.4 µM | 6.51 µM | > 100 µM |  |  |  |  |  | 3.63 µM | > 100 µM |  |  | 
O=C(c1ccc(C(F)(F)F)c(Cl)c1)N(Cc1ccc(Cl)cc1)c1ccc(-c2cc(C(F)(F)F)[nH]n2)c(O)c1 | 1.31 µM | 3.99 µM | 1.05 µM | 3.03 µM | 0.897 µM | 2.91 µM |  |  |  |  |  | 0.948 µM | 3.43 µM |  |  | 
c1ccncc1 |  |  |  |  |  |  | > 100 µM | > 100 µM | > 100 µM |  | > 100 µM |  |  |  |  | 
CCOc1cn(C2OC(CO)C(O)C2O)c(=O)[nH]c1=O (centres undefined) |  |  |  |  |  |  | > 100 µM | > 100 µM | > 100 µM | > 100 µM | > 100 µM |  |  |  |  | 
O=C1C(=C([O-])c2ccccc2)C(=O)c2ccccc21.O=C1C(=C([O-])c2ccccc2)C(=O)c2ccccc21.[Mn+2] |  |  |  |  |  |  |  |  | > 100 µM | > 100 µM | > 100 µM |  |  | 30.5 µM | > 100 µM | 62 µM
COc1cc(/C=C/c2cc(/C=C/c3ccc(O)c(OC)c3)n(C(=O)Nc3ccccc3Cl)n2)ccc1O | 0.303 µM | 2.75 µM | 0.114 µM | 0.89 µM | 0.392 µM | 2.22 µM |  |  |  |  |  | 0.821 µM | 2.79 µM |  |  | 
CC1(C)N=C(N)N=C(N)N1c1ccc(Cl)cc1 | 14.6 µM | > 100 µM | > 100 µM | > 100 µM | 6.07 µM | > 100 µM |  |  |  |  |  | > 100 µM | > 100 µM |  |  | 
N#CCC(=O)N/N=C1/C(=O)N(c2cc(Cl)ccc2Cl)C(=O)C(=O)C1c1nc2ccccc2s1 (centres undefined) |  |  |  |  |  |  | > 100 µM | > 100 µM | > 100 µM | > 100 µM | > 100 µM |  |  |  |  | 
Oc1c(Cl)cc(Cl)cc1/C=N/Nc1nnc(N/N=C/c2cc(Cl)cc(Cl)c2O)c2ccccc12 | 0.549 µM | > 100 µM | 1.03 µM | > 100 µM |  |  |  |  |  |  |  | 0.506 µM | > 100 µM |  |  | 
COc1cccc(-c2cc(=O)c3cc(N4CCOCC4)ccc3[nH]2)c1 |  |  |  | 0.055 µM | 0.0281 µM | > 100 µM |  |  |  |  |  |  |  |  |  | 
Cc1ccc(C=C2C(Cl)=C(Cl)C(Cl)=C2Cl)cc1 | 0.882 µM | 3.32 µM | 0.636 µM | 7.56 µM | 0.743 µM | 6.3 µM |  |  |  |  |  | 1.02 µM | 2.79 µM |  |  | 

Reference: PubChem BioAssay (NCI)
